Values quoted from earlier work, collected in patent US9376461B2, “Non-enzymatic synthesis of O-acetyl-ADP-ribose and analogues thereof” (GlaxoSmithKline LLC, priority 2011, dated 2016).

System: starfish oocyte maturation
Conditions: infusion (microinjection) of OAADPR, presumably as the mixture of 2′ and 3′ isomers

## 2′- and 3′-O-Acetyl-ADP-ribose [OAADPR]
  effect on starfish oocyte maturation: delayed or halted
